# Results reported in US4788216A, “Medicinal uses for podophyllotoxins” (Conpharm AB, priority 1984, dated 1988).
# Values joined by “and” are separate entries in the source; they are usually repeats but may differ in a detail not shown here. Equal entries are not always repeated.
# Key:
# Solubility in water = assay type: physicochemical; conditions: in its pure state
# Description: The compound podophyllotoxin has the following physical data in its pure state: […]
# Acute toxicity in rat = conditions: in vivo
# Description: (§1) The acute toxicity of podophyllotoxin has been determined on various test animals and by various ways of administration.
# Acute toxicity in mouse = conditions: in vivo
# Description: as §1
# Acute toxicity in rabbit = conditions: in vivo, topical or ocular, dermal
# Description: as §1
# Plasmodium falciparum = experiment: Clinical effect against malaria (number of asexual parasites in blood of patients); assay type: in vivo; conditions: individual patient
# Method: The effect against malaria was determined clinically on a number of patients which had been attacked by the malaria parasite Plasmodium falciparum. Podophyllotoxin was administered in two different doses and the number of parasites in the patients was determined for each day and was noted as the number of asexual parasites per cubic millimeter of blood.
# [1] = system: formation of specific antibodies; experiment: Antibody formation in mice injected with sheep erythrocytes; assay type: in vivo; conditions: daily injections after administration of erythrocytes, spleen
# Description: Injection with a suspension of erythrocytes from sheep to mice causes formation of specific antibodies against this antigen. This reaction which normally is very strong requires a cooperation between different cell types, substantially macrophages, T and B lymphocytes, and can easily be detected in the spleen of the test animals.
# proliferation of cells = experiment: In vitro proliferation of cells caused by mitogenic lectins or cells from a non-related individual; assay type: cell-based
# cytotoxic cells = experiment: In vitro development of cytotoxic cells; assay type: cell-based
# [2] = system: psoriasis vulgaris lesions; experiment: Clinical investigation in psoriasis vulgaris patients, topical cream; assay type: in vivo, human (patients)
# Method: A clinical investigation was carried out with totally 152 patients of an age between 19 and 71 years (mean value 46.1 years) afflicted with psoriasis vulgaris. The patients were divided into three groups of 50, 51 and 51 persons who were treated topically with a cream containing 0.1, 0.25 and 0.5% of podophyllotoxin, respectively. Each patient was treated only on a specific attacked area of the body while other attacked areas served as comparison. The severity of the attack was judged at the start of the treatment, and 2, 4, 8, 12 and 16 weeks after this, no treatment being carried out during the last period of 4 weeks. The investigation was carried out with double blind technique and the results were treated statistically.
smiles,measurement,setting,value
COc1cc([C@@H]2c3cc4c(cc3[C@H](O)[C@H]3COC(=O)[C@H]23)OCO4)cc(OC)c1OC [podophyllotoxin],solubility,Solubility in water,120 µg/mL
same,LD50,Acute toxicity in rat; iv,10 mg/kg
same,LD50,"Acute toxicity in rat; topical or ocular, dermal",500 mg/kg
same,LD50,Acute toxicity in mouse; iv,20 mg/kg
same,LD50,Acute toxicity in mouse; po,100 mg/kg
same,LD50,Acute toxicity in rabbit,200 mg/kg
same,Remarks (outcome),Plasmodium falciparum; 1.5 mg per day (t.i.d.),Marked reduction of parasites
same,"number of asexual parasites, day 0",Plasmodium falciparum; 1.5 mg per day (t.i.d.),660 asexual parasites per cubic mi and 13710 asexual parasites per cubic mi and 1410 asexual parasites per cubic mi and 960 asexual parasites per cubic mi and 13080 asexual parasites per cubic mi and 4380 asexual parasites per cubic mi
same,"number of asexual parasites, day 1",Plasmodium falciparum; 1.5 mg per day (t.i.d.),180 asexual parasites per cubic mi and 3000 asexual parasites per cubic mi and 360 asexual parasites per cubic mi and 90 asexual parasites per cubic mi and 510 asexual parasites per cubic mi and 1560 asexual parasites per cubic mi
same,"number of asexual parasites, day 2",Plasmodium falciparum; 1.5 mg per day (t.i.d.),0 asexual parasites per cubic mi and 120 asexual parasites per cubic mi and 180 asexual parasites per cubic mi
same,"number of asexual parasites, day 3",Plasmodium falciparum; 1.5 mg per day (t.i.d.),0 asexual parasites per cubic mi and 660 asexual parasites per cubic mi
same,"number of asexual parasites, day 4",Plasmodium falciparum; 1.5 mg per day (t.i.d.),180 asexual parasites per cubic mi and 0 asexual parasites per cubic mi and 60 asexual parasites per cubic mi and 1400 asexual parasites per cubic mi
same,"number of asexual parasites, day 5",Plasmodium falciparum; 1.5 mg per day (t.i.d.),270 asexual parasites per cubic mi and 0 asexual parasites per cubic mi and 60 asexual parasites per cubic mi
same,"number of asexual parasites, day 6",Plasmodium falciparum; 1.5 mg per day (t.i.d.),270 asexual parasites per cubic mi and 0 asexual parasites per cubic mi and 60 asexual parasites per cubic mi
same,"number of asexual parasites, day 7",Plasmodium falciparum; 1.5 mg per day (t.i.d.),270 asexual parasites per cubic mi and 0 asexual parasites per cubic mi and 60 asexual parasites per cubic mi
same,Remarks (outcome),Plasmodium falciparum; 3.0 mg per day (t.i.d.),Cured
same,"number of asexual parasites, day 0",Plasmodium falciparum; 3.0 mg per day (t.i.d.),2880 asexual parasites per cubic mi and 2060 asexual parasites per cubic mi and 6080 asexual parasites per cubic mi and 320 asexual parasites per cubic mi
same,"number of asexual parasites, day 1",Plasmodium falciparum; 3.0 mg per day (t.i.d.),2520 asexual parasites per cubic mi and 1600 asexual parasites per cubic mi and 2000 asexual parasites per cubic mi and 60 asexual parasites per cubic mi
same,"number of asexual parasites, day 2",Plasmodium falciparum; 3.0 mg per day (t.i.d.),60 asexual parasites per cubic mi and 0 asexual parasites per cubic mi
same,"number of asexual parasites, day 3",Plasmodium falciparum; 3.0 mg per day (t.i.d.),540 asexual parasites per cubic mi and 0 asexual parasites per cubic mi
same,"number of asexual parasites, day 4",Plasmodium falciparum; 3.0 mg per day (t.i.d.),600 asexual parasites per cubic mi and 0 asexual parasites per cubic mi
same,"number of asexual parasites, day 5",Plasmodium falciparum; 3.0 mg per day (t.i.d.),600 asexual parasites per cubic mi and 0 asexual parasites per cubic mi
same,"number of asexual parasites, day 6",Plasmodium falciparum; 3.0 mg per day (t.i.d.),0 asexual parasites per cubic mi
same,"number of asexual parasites, day 7",Plasmodium falciparum; 3.0 mg per day (t.i.d.),0 asexual parasites per cubic mi
same,inhibition of antibody formation against sheep erythrocytes,[1],inhibited in a dose-dependent way
same,time to recover complete reactivity to the stimuli,proliferation of cells; cells treated with podophyllotoxin,≤ 24 h
same,effects at markedly lower doses (proliferation),"proliferation of cells; in vitro, markedly lower doses",at markedly lower doses these effects increase
same,inhibition of proliferation of cells,"proliferation of cells; in vitro, mitogenic lectins or cells from a non-related individual",inhibits the proliferation of cells
same,inhibition of development of cytotoxic cells,cytotoxic cells,inhibits the development of cytotoxic cells
same,effects at markedly lower doses (development of cytotoxic cells),cytotoxic cells; markedly lower doses,at markedly lower doses these effects increase
same,reversibility of secondary effects,[2]; after interruption of the treatment,disappeared after interruption of the treatment
same,difference between treated and untreated lesions,[2]; after two weeks and in the course of the treatment,statistically significant difference
same,patients free from symptoms or with only mild ones,"[2]; at the fifth control, untreated lesions: only two patients",70-75%
same,improvement of severity of treated lesions with associated symptoms,"[2]; cream 0.1, 0.25 and 0.5%, all three dosage levels",statistically significant improvements
same,patients reporting secondary effects such as rash,"[2]; of 152 patients, three cream strengths together",11 patients
same,deterioration of severity or symptoms of treated lesions in follow-up,"[2]; weeks 13 to 16, no treatment",no deterioration occurred
